Laboratory results as given in ChEMBL document CHEMBL5678818, “Discovery of potent SOS1 inhibitors that block RAS activation via disruption of the RAS-SOS1 interaction” (Proc Natl Acad Sci U S A, 2019).

Tests used:
[1] = target: T1, Bone morphogenetic protein receptor type-2 (Homo sapiens) (UniProt Q13873); experiment: Inhibition of BMPR2 (unknown origin) assessed as residual activity at 100 nM by KINOMEscan analysis relative to control
T1 sequence (whole entry): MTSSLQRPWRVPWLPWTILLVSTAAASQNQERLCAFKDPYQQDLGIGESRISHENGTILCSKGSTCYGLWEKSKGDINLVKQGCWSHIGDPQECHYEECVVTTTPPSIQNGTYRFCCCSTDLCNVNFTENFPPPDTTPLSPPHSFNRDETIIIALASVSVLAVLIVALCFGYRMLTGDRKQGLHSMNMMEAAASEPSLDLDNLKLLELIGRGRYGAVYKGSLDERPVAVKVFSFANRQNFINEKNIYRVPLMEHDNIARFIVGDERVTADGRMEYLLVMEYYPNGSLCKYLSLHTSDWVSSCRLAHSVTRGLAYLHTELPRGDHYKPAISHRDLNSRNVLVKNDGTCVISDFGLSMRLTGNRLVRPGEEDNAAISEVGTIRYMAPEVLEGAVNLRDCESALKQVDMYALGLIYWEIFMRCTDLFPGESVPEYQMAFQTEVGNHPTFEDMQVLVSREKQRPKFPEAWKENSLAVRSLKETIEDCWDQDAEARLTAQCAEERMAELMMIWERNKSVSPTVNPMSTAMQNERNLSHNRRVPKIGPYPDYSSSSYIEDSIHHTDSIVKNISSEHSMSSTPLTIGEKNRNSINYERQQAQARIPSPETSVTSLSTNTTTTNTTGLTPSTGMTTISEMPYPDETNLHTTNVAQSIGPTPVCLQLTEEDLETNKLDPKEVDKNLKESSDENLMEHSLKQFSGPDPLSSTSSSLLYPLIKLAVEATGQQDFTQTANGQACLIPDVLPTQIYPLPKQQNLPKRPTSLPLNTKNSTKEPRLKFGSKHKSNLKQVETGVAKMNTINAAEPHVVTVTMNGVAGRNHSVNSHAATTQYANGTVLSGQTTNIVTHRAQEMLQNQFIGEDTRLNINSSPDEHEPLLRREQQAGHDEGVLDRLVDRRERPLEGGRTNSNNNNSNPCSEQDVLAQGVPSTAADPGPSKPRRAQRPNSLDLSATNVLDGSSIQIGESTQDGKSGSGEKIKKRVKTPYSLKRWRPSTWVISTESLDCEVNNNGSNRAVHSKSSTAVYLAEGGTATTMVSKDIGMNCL

[2] = target: Death-associated protein kinase 2 (Homo sapiens) (UniProt Q9UIK4); experiment: Inhibition of DAPK2 (unknown origin) assessed as residual activity at 100 nM by KINOMEscan analysis relative to control
Sequence of Death-associated protein kinase 2 (Homo sapiens) (Q9UIK4 whole entry, looked up): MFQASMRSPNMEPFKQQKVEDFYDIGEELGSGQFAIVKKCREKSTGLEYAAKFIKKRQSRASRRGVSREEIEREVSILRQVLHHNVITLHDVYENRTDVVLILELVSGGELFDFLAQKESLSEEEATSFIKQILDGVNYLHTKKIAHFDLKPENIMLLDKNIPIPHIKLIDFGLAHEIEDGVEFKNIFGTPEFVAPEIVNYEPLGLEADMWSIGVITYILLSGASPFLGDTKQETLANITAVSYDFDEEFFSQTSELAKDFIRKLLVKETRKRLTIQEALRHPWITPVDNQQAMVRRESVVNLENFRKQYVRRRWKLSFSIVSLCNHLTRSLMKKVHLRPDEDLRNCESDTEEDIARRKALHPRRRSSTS

[3] = target: T2, Serine/threonine-protein kinase Nek11 (Homo sapiens) (UniProt Q8NG66); experiment: Inhibition of NEK11 (unknown origin) assessed as residual activity at 100 nM by KINOMEscan analysis relative to control
T2 sequence (whole entry): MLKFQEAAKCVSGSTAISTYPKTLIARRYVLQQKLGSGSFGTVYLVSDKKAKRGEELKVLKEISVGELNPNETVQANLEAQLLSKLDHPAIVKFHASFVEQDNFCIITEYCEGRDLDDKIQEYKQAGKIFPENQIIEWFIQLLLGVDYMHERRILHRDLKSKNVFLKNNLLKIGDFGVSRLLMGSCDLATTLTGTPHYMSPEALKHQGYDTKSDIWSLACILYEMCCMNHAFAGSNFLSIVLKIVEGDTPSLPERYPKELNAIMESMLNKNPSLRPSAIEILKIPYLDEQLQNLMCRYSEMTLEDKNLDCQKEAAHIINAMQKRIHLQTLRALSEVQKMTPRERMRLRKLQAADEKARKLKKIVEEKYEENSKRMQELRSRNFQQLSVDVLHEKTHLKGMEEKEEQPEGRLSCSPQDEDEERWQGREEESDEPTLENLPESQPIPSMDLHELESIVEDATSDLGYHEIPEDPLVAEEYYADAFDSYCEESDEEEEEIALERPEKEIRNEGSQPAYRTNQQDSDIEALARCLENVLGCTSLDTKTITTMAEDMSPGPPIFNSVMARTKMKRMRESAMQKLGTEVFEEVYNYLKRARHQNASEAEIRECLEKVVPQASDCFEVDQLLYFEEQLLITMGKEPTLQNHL

[4] = target: Hepatocyte growth factor receptor (Homo sapiens) (UniProt P08581); experiment: Inhibition of MET (unknown origin) assessed as residual activity at 100 nM by KINOMEscan analysis relative to control
Sequence of Hepatocyte growth factor receptor (Homo sapiens) (P08581 whole entry): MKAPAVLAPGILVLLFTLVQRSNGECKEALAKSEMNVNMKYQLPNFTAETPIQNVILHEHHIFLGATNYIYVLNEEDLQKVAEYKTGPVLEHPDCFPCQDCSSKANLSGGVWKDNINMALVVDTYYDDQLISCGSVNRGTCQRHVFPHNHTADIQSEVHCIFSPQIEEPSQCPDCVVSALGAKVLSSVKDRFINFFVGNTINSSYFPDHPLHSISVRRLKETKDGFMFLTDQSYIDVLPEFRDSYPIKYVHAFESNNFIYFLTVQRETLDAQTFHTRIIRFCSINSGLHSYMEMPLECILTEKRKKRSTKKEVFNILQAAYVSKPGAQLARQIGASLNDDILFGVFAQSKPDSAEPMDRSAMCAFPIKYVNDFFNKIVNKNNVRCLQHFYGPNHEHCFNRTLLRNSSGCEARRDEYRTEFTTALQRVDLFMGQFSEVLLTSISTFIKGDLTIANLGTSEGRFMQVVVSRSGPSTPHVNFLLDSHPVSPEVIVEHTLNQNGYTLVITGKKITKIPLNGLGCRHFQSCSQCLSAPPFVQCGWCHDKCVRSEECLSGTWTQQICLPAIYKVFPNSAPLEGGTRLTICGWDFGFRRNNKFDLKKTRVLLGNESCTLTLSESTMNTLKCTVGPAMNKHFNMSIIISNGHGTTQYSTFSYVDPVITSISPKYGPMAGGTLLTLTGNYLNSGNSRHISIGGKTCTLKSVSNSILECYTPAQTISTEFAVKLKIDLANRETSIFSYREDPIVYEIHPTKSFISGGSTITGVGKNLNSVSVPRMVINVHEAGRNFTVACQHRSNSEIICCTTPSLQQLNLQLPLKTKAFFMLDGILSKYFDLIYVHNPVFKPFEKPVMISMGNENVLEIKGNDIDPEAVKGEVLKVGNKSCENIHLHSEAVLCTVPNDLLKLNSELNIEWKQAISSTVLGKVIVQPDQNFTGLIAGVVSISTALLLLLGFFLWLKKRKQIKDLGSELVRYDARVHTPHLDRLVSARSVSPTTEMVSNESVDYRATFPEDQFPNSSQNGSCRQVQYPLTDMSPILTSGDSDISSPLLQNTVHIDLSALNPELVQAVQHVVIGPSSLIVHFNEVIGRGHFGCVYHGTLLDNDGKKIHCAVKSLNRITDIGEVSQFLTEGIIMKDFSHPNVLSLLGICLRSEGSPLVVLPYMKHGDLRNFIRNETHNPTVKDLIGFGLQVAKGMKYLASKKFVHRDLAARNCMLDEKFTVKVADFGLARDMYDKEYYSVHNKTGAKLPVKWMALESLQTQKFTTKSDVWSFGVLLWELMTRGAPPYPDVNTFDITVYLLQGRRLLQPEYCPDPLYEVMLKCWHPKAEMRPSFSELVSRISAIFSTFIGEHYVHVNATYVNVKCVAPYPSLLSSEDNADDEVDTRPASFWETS

Homo sapiens = species: Homo sapiens; experiment: Inhibition of JNK3 (unknown origin) assessed as residual activity at 100 nM by KINOMEscan analysis relative to control
[5] = target: T3, Cyclin-dependent kinase-like 5 (Homo sapiens) (UniProt O76039); experiment: Inhibition of CDKL5 (unknown origin) assessed as residual activity at 100 nM by KINOMEscan analysis relative to control
T3 sequence (whole entry): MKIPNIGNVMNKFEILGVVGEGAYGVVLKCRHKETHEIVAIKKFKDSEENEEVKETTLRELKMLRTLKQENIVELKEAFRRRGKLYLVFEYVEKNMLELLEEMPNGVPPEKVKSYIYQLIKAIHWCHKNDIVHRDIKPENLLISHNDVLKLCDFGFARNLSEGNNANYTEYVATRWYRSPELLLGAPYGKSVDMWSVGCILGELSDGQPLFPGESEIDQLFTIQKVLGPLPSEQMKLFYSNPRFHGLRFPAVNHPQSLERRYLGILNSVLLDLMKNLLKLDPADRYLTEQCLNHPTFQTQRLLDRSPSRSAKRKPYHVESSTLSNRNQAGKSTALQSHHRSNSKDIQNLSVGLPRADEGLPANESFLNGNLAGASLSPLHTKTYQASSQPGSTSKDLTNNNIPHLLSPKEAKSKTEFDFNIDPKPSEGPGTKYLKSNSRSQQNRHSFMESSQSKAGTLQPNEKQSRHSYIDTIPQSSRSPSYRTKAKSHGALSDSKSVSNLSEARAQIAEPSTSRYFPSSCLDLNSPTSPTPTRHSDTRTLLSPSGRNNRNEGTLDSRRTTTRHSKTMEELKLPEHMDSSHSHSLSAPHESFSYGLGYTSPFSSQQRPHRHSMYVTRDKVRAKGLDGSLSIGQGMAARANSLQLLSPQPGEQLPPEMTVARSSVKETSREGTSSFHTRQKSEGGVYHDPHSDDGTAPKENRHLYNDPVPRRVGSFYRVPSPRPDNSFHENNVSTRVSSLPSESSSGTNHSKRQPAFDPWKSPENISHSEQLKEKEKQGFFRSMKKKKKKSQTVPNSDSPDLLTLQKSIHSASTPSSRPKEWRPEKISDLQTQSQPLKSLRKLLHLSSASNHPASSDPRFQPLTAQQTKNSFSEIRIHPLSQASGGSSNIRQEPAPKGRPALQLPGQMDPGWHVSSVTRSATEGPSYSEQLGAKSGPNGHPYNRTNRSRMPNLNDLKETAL

[6] = target: Serine/threonine-protein kinase Chk2 (Homo sapiens) (UniProt O96017); experiment: Inhibition of CHEK2 (unknown origin) assessed as residual activity at 100 nM by KINOMEscan analysis relative to control
Sequence of Serine/threonine-protein kinase Chk2 (Homo sapiens) (O96017 whole entry): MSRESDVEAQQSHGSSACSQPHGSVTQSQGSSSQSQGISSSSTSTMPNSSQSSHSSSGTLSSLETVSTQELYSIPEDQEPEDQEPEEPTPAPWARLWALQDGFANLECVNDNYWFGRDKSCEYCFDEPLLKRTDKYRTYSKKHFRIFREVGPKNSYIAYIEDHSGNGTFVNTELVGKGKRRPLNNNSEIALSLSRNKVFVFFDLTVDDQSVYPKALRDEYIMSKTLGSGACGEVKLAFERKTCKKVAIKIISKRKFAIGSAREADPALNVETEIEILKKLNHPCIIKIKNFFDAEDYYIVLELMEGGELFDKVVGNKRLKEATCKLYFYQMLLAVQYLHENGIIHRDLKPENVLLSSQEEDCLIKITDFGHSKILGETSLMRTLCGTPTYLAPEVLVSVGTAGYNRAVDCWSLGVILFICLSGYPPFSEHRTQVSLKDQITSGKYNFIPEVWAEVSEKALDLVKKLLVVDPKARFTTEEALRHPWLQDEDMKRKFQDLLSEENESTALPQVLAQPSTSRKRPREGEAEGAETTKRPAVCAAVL

`COc1cc2ncnc(N[C@H](C)c3cccc4ccccc34)c2cc1OC` gave an Activity [1] of 97%, an Activity [2] of 100% and an Activity [3] of 79%. It also gave an Activity [4] of 100%, an Activity (Homo sapiens) of 77% and an Activity [5] of 96%. It also gave an Activity [6] of 100%.
